Assay [1] addresses T1, neurokinin-1 (NK-1) receptor (Homo sapiens, UniProt P25103).
T1 construct: a human glioblastoma-astrocytoma cell line that endogenously expresses the neurokinin-1 (NK-1) receptor; endogenous in cells; host or cells: U373 human glioblastoma-astrocytoma cells (membranes)
Nature of the assay: NK-1 Binding assay ([125I] Substance P competition, U373 cell membranes). Particulars: Table 2; U373 membranes, [125I] Substance P displacement; read-out: NK-1 IC50. The essentials: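 Membranes were prepared from U373 human glioblastoma-astrocytoma cells, which express NK-1 endogenously, in 50 mM Tris-HCl pH 7.4 with 3 mM MnCl2, BSA and protease inhibitors. IC50 taken as the midpoint of the specific-binding displacement curve.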

The target of assay [2] is T2, human serotonin transporters (Homo sapiens, UniProt P31645).
T2 construct: expressed in transfected cells
T2 sequence (P31645 whole entry): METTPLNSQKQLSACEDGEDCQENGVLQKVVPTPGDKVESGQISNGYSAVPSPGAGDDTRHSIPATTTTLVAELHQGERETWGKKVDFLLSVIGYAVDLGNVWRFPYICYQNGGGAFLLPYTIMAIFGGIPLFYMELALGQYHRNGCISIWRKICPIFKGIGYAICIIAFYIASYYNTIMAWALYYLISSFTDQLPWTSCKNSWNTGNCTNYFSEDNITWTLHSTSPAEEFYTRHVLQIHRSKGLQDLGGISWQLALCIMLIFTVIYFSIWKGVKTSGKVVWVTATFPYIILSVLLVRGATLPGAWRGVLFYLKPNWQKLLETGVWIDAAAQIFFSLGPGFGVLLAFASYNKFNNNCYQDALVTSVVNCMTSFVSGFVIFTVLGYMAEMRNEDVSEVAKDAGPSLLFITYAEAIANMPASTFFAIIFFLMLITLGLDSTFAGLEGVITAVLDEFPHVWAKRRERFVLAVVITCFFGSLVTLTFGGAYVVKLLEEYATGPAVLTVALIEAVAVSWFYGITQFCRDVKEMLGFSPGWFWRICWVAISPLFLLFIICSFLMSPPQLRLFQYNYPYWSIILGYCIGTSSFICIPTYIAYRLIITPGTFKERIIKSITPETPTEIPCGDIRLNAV
Nature of the assay: Serotonin transporter binding assay ([3H]-citalopram competition, HEK-hSERT cell membranes). Particulars: Table 2; HEK-hSERT membranes, [3H]-citalopram displacement; read-out: SERT IC50. A digest of the protocol: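 Competition binding against 1 nM [3H]-citalopram (1 hr, 25 °C, Tris pH 7.4 with NaCl/KCl) on stably transfected HEK-hSERT cell membranes, bound ligand collected on filters. Fluoxetine (10 μM) defined nonspecific binding; curve midpoint gives IC50, convertible to Ki by Cheng–Prusoff.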

IC50 data for 30 molecules are collected here from patent publication US20070249607A1, “NK-1 AND SEROTONIN TRANSPORTER INHIBITORS” (Bristol-Myers Squibb Company, priority 2006, published 2007).

T1 sequence (P25103 whole entry): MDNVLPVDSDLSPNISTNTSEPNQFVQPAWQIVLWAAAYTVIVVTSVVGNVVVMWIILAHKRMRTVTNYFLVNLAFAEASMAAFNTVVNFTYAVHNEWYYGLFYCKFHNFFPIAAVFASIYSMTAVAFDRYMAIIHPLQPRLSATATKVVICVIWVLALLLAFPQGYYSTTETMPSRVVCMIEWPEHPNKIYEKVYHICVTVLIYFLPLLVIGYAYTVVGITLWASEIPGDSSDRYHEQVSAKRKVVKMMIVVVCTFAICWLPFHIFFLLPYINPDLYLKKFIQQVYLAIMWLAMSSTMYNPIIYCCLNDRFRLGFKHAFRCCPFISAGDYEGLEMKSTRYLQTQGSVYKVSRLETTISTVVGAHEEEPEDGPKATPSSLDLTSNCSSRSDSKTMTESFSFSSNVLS

For `CCCCOc1ccc(-c2cc(COCC3(c4ccccc4)CCNCC3)cc(C(F)(F)F)c2)cc1`, the IC50 in assay [1] and in assay [2] was 0.01 to 100 nM throughout.

Regarding `COc1ccc(-c2cc(COCC3(c4ccccc4)CCNCC3)cc(C(F)(F)F)c2)c(OC)n1`, the IC50 in assay [1] and in assay [2] was 0.01 to 100 nM throughout.

With `FC(F)(F)c1cc(COCC2(c3ccccc3)CCNCC2)cc(-c2ccc(C3CCNCC3)nc2)c1`, the half-maximal inhibitory concentration (IC50) (usually the concentration at which inhibition is half-maximal) in assay [1] is over 300 nM; in assay [2], 0.01 to 100 nM.

For the molecule `COc1cc(-c2cc(COCC3(c4ccccc4)CCNCC3)cc(C(F)(F)F)c2)ccc1O`, the half-maximal inhibitory concentration (IC50) in assay [1] and in assay [2] was 0.01 to 100 nM in each case.

With `CCCCc1ccc(-c2cc(COCC3(c4ccccc4)CCNCC3)cc(C(F)(F)F)c2)cc1`, the IC50 in assay [1] and in assay [2] was 0.01 to 100 nM throughout.

Regarding `CC(C)c1ccc(-c2cc(COCC3(c4ccccc4)CCNCC3)cc(C(F)(F)F)c2)cc1`, the IC50 in assay [1] was over 300 nM; in assay [2] it was 0.01 to 100 nM.

For `O=C(OCc1ccccc1)c1ccc(-c2cc(COCC3(c4ccccc4)CCNCC3)cc(C(F)(F)F)c2)cc1`, the IC50 in assay [1] and in assay [2] was 0.01 to 100 nM throughout.

Regarding `CCOC(=O)c1cccc(-c2cc(COCC3(c4ccccc4)CCNCC3)cc(C(F)(F)F)c2)c1`, the values for the IC50 in assay [1] and in assay [2] were 100 to 300 nM and 0.01 to 100 nM, respectively.

On to `O=C(OCc1ccccc1)c1cccc(-c2cc(COCC3(c4ccccc4)CCNCC3)cc(C(F)(F)F)c2)c1`, for which the IC50 was over 300 nM in assay [1] and 0.01 to 100 nM in assay [2].

For `O=[N+]([O-])c1ccccc1-c1cc(COCC2(c3ccccc3)CCNCC2)cc(C(F)(F)F)c1`, the IC50 in assay [1] and in assay [2] was 0.01 to 100 nM in each case.

In the case of `CC(=O)Nc1ccc(-c2cc(COCC3(c4ccccc4)CCNCC3)cc(C(F)(F)F)c2)cc1`, the IC50 in assay [1] and in assay [2] was 0.01 to 100 nM throughout.

As for `CCOC(=O)c1ccccc1-c1cc(COCC2(c3ccccc3)CCNCC2)cc(C(F)(F)F)c1`, the IC50 in assay [1] is over 300 nM; in assay [2], 100 to 300 nM.

For `COc1ccc(C)cc1-c1cc(COCC2(c3ccccc3)CCNCC2)cc(C(F)(F)F)c1`, the values for the IC50 in assay [1] and in assay [2] were over 300 nM and 0.01 to 100 nM, respectively.

In the case of `COC(=O)c1cc(-c2cc(COCC3(c4ccccc4)CCNCC3)cc(C(F)(F)F)c2)cc([N+](=O)[O-])c1`, the IC50 in assay [1] is over 300 nM; in assay [2] it was 0.01 to 100 nM.

Regarding `CC(C)OC(=O)c1ccc(-c2cc(COCC3(c4ccccc4)CCNCC3)cc(C(F)(F)F)c2)cc1`, the IC50 in assay [1] and in assay [2] was 0.01 to 100 nM throughout.

Turning to `COc1cccc(-c2cc(COCC3(c4ccccc4)CCNCC3)cc(C(F)(F)F)c2)c1OC`, the IC50 in assay [1] and in assay [2] was 100 to 300 nM throughout.

As for `COc1ccc2cc(-c3cc(COCC4(c5ccccc5)CCNCC4)cc(C(F)(F)F)c3)ccc2c1`, the results for the IC50 in assay [1] and in assay [2] were over 300 nM and 0.01 to 100 nM, respectively.

As for `CCOc1ccc2cc(-c3cc(COCC4(c5ccccc5)CCNCC4)cc(C(F)(F)F)c3)ccc2c1`, the IC50 in assay [1] was in the range of 100 to 300 nM; in assay [2], 0.01 to 100 nM.

Consider `CC(C)Oc1ccc(-c2cc(COCC3(c4ccccc4)CCNCC3)cc(C(F)(F)F)c2)cc1`, for which the IC50 in assay [1] and in assay [2] was 100 to 300 nM each time.

Consider `CC(=O)c1ccccc1-c1cc(COCC2(c3ccccc3)CCNCC2)cc(C(F)(F)F)c1`, for which the IC50 in assay [1] was over 300 nM; in assay [2] it was 100 to 300 nM.

As to `COC(=O)c1ccc(-c2cc(COCC3(c4ccccc4)CCNCC3)cc(C(F)(F)F)c2)cc1`, the IC50 in assay [1] and in assay [2] was 0.01 to 100 nM in each case.

Regarding `Cc1ccc(-c2cc(COCC3(c4ccccc4)CCNCC3)cc(C(F)(F)F)c2)c2ccccc12`, the IC50 in assay [1] was over 300 nM; in assay [2], 100 to 300 nM.

Take `Cc1cccc(-c2cc(COCC3(c4ccccc4)CCNCC3)cc(C(F)(F)F)c2)c1C`: the IC50 in assay [1] is 100 to 300 nM; in assay [2], 0.01 to 100 nM.

For the molecule `Cc1cc(-c2cc(COCC3(c4ccccc4)CCNCC3)cc(C(F)(F)F)c2)ccc1F`, the IC50 in assay [1] and in assay [2] was 0.01 to 100 nM each time.

For `FC(F)(F)c1cc(COCC2(c3ccccc3)CCNCC2)cc(-c2ccc(C3CCCCC3)cc2)c1`, the IC50 is over 300 nM in assay [1] and 100 to 300 nM in assay [2].

`CCc1ccccc1-c1cc(COCC2(c3ccccc3)CCNCC2)cc(C(F)(F)F)c1`: the figures for the IC50 in assay [1] and in assay [2] were over 300 nM and 0.01 to 100 nM, respectively.

Consider `Cc1cc(-c2cc(COCC3(c4ccccc4)CCNCC3)cc(C(F)(F)F)c2)cc(C)c1O`, for which the IC50 is over 300 nM in assay [1] and 0.01 to 100 nM in assay [2].

On to `O=[N+]([O-])c1ccc(-c2cc(COCC3(c4ccccc4)CCNCC3)cc(C(F)(F)F)c2)cc1`, for which the IC50 in assay [1] and in assay [2] was 0.01 to 100 nM throughout.

As for `COc1ccc(-c2cc(COCC3(c4ccccc4)CCNCC3)cc(C(F)(F)F)c2)cc1C`, the IC50 in assay [1] and in assay [2] was 0.01 to 100 nM in each case.

As to `CCCOc1cccc(-c2cc(COCC3(c4ccccc4)CCNCC3)cc(C(F)(F)F)c2)c1`, the IC50 was over 300 nM in assay [1] and 100 to 300 nM in assay [2].
